Measured values: patent US20130244876A1, “Synergistic compositions comprising ethephon and saflufenacil or cyclanilide and saflufenacil” (priority 2012, published 2013)

Experiments:
soybean variety Maxi = test: Greenhouse trial for desiccation in soybean; format: in vivo; settings: foliar spray 100 L/ha, three days after application
Experimental: (§1) The trial was established under greenhouse conditions. The objective was to evaluate the dessication activity of saflufenacil solo and in mixture with cyclanilide and ethephon.
(§2) The plants (soybean variety Maxi, cotton Variety Oxford) were sown (Dec. 3, 2012) in pots with 8.5 cm of diameter using standard soil from Limburgerhof, Palatinate, Germany, emerging after 3 days, maintained during the entire growth period at temperatures of about 20 to 24° C., relative humidity of about 65 to 70%, watering in the afternoon or in the morning. Each treatment was composed by 4 replications (one plant per pot).
(§3) Foliar treatments were applied 51 days after sowing (Jan. 23, 2013) in a spray cabin with one Flat fan nozzle, using 100 L/ha as application volume. The spray solutions were prepared according to the given concentration of Tables 1 and 2 and contained in addition to the formulations used a surfactant (DASH HC, BASF S.A., Brazil; EC formulation based on methyl esters) at 0,5% (v/v).
(§4) Saflufenacil (70% (w/w), WG formulation; Sharpen® BASF Corporation, USA)
(§5) Ethephon (480 g/L, SL formulation)
(§6) Cyclanilide, (300 g/kg, WP formulation)
(§7) Assessments were made at three days after applicaton in soybean and seven days after application in cotton by evaluating percentage of symptoms of damage to the crop, mainly chlorosis and necrosis.

cotton Variety Oxford = test: Greenhouse trial for desiccation in cotton; format: in vivo; settings: foliar spray 100 L/ha, seven days after application
Experimental: as §1, §2, §3, §4, §5, §6, §7

[1] = 1.5 g of a.i. per 100 L, percentage of symptoms of damage
[2] = 20 g of a.i. per 100 L, percentage of symptoms of damage
[3] = 1.4 g of a.i. per 100 L, percentage of symptoms of damage (chlorosis and necrosis)

## O=C(O)C1(C(=O)Nc2ccc(Cl)cc2Cl)CC1 [Cyclanilide]
Soybean variety Maxi; [1]
  Observed activity (%): 0%
Cotton Variety Oxford; [1]
  Observed activity (%): 0%

## O=P(O)(O)CCCl [Ethephon]
Soybean variety Maxi; [2]
  Observed activity (%): 0%
Cotton Variety Oxford; [2]
  Observed activity (%): 0%

## CC(C)N(C)S(=O)(=O)NC(=O)c1cc(-n2c(=O)cc(C(F)(F)F)n(C)c2=O)c(F)cc1Cl [Saflufenacil]
Soybean variety Maxi; [3]
  Observed activity (%): 15%
Cotton Variety Oxford; [3]
  Observed activity (%): 18.8%
